According to patent publication US20070249670A1, “Glycogen Phosphorylase Inhibitor Compounds and Pharmaceutical Compositions Thereof” (SMITHKLINE BEECHAM CORPORATION, priority 2004, published 2007):

Molecular target: T1, human liver glycogen phosphorylase a (HLGPa) (Homo sapiens, UniProt P06737)
T1 construct: creating a full-length cDNA fused at the 5′ end to codons for methionine-glycine-alanine-histidine; 6xHis tag (leader Met-Gly-Ala-His6-Gly-Gly) (N); made in house; host or cells: E. coli (bacterial expression plasmid pTXK1007LTev)
T1 sequence (P06737 2-847 limits assumed): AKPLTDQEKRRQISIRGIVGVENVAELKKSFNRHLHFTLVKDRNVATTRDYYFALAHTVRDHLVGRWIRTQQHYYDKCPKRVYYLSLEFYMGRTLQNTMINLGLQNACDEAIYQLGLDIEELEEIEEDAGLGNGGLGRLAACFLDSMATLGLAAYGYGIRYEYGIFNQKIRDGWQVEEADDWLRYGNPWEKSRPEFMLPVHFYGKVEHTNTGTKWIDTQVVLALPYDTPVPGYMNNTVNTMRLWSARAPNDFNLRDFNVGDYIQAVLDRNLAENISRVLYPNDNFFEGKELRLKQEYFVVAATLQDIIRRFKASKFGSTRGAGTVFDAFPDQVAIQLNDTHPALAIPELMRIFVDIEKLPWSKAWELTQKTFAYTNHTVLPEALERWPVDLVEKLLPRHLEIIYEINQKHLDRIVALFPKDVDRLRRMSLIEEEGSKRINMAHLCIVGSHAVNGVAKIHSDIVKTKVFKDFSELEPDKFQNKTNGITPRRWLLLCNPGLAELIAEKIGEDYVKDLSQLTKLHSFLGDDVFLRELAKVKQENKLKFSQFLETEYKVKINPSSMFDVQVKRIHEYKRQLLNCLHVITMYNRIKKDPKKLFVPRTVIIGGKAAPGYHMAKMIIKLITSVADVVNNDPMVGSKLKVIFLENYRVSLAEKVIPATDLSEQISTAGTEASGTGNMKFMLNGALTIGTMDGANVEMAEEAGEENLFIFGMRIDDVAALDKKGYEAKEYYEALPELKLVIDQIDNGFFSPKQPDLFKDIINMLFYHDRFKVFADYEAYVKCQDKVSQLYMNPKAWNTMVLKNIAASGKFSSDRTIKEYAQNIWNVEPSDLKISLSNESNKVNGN
Assay: Human liver glycogen phosphorylase a enzymatic activity assay (coupled, fluorescent resorufin readout, with and without 10 mM glucose)
Type: biochemical
Conditions: human liver glycogen phosphorylase a enzymatic activity assay

Row | IC50 [nM] | SMILES
1 | 890 | O=C(Nc1cc(-c2ccccc2)sc1C(=O)O)Nc1c(Cl)cccc1Cl [Example 410, 3-({[(2,6-dichlorophenyl)amino]carbonyl}amino)-5-phenyl-2-thiophenecarboxylic acid]
2 | 120 | O=C(Nc1cc(-c2ccccc2)sc1C(=O)N[C@H](C(=O)O)C1CCCCC1)Nc1c(Cl)cccc1Cl [Example 411, (2S)-cyclohexyl({[3-({[(2,6-dichlorophenyl)amino]carbonyl}amino)-5-phenyl-2-thienyl]carbonyl}amino)ethanoic acid]
3 | 1040 | COc1ccc(-c2cc(C(=O)O)c(NC(=O)Nc3c(Cl)cccc3Cl)s2)cc1 [Example 412, 2-({[(2,6-dichlorophenyl)amino]carbonyl}amino)-5-[4-(methyloxy)phenyl]-3-thiophenecarboxylic acid]
4 | 10600 | O=C(Nc1sc(Br)cc1C(=O)O)Nc1c(Cl)cccc1Cl [Example 413, 5-bromo-2-({[(2,6-dichlorophenyl)amino]carbonyl}amino)-3-thiophenecarboxylic acid]
5 | 2720 | O=C(Nc1sc(-c2cccnc2)cc1C(=O)O)Nc1c(Cl)cccc1Cl [Example 414, 2-({[(2,6-dichlorophenyl)amino]carbonyl}amino)-5-(3-pyridinyl)-3-thiophenecarboxylic acid]
6 | 770 | O=C(Nc1sc(-c2cccnc2)cc1C(=O)N[C@H](C(=O)O)C1CCCCC1)Nc1c(Cl)cccc1Cl [Example 415, (2S)-cyclohexyl({[2-({[(2,6-dichlorophenyl)amino]carbonyl}amino)-5-(3-pyridinyl)-3-thienyl]carbonyl}amino)ethanoic acid]
7 | 4130 | COc1cccc(-c2cc(C(=O)O)c(NC(=O)Nc3c(Cl)cccc3Cl)s2)c1 [Example 416, 2-({[(2,6-dichlorophenyl)amino]carbonyl}amino)-5-[3-(methyloxy)phenyl]-3-thiophenecarboxylic acid]
8 | 360 | COc1cccc(-c2cc(C(=O)N[C@H](C(=O)O)C3CCCCC3)c(NC(=O)Nc3c(Cl)cccc3Cl)s2)c1 [Example 417, (2S)-cyclohexyl[({2-({[(2,6-dichlorophenyl)amino]carbonyl}amino)-5-[3-(methyloxy)phenyl]-3-thienyl}carbonyl)amino]ethanoic acid]
9 | 2970 | O=C(Nc1sc(-c2ccc(F)cc2)cc1C(=O)O)Nc1c(Cl)cccc1Cl [Example 418, 2-({[(2,6-dichlorophenyl)amino]carbonyl}amino)-5-(4-fluorophenyl)-3-thiophenecarboxylic acid]
10 | 600 | O=C(Nc1sc(-c2ccc(F)cc2)cc1C(=O)N[C@H](C(=O)O)C1CCCCC1)Nc1c(Cl)cccc1Cl [Example 419, (2S)-cyclohexyl({[2-({[(2,6-dichlorophenyl)amino]carbonyl}amino)-5-(4-fluorophenyl)-3-thienyl]carbonyl}amino)ethanoic acid]
11 | 5640 | Cc1cc(F)ccc1-c1cc(C(=O)O)c(NC(=O)Nc2c(Cl)cccc2Cl)s1 [Example 420, 2-({[(2,6-dichlorophenyl)amino]carbonyl}amino)-5-(4-fluoro-2-methylphenyl)-3-thiophenecarboxylic acid]
12 | 1390 | Cc1cc(F)ccc1-c1cc(C(=O)N[C@H](C(=O)O)C2CCCCC2)c(NC(=O)Nc2c(Cl)cccc2Cl)s1 [Example 421, (2S)-cyclohexyl({[2-({[(2,6-dichlorophenyl)amino]carbonyl}amino)-5-(4-fluoro-2-methylphenyl)-3-thienyl]carbonyl}amino)ethanoic acid]
13 | 6340 | Cn1cc(-c2cc(C(=O)O)c(NC(=O)Nc3c(Cl)cccc3Cl)s2)cn1 [Example 422, 2-({[(2,6-dichlorophenyl)amino]carbonyl}amino)-5-(1-methyl-1H-pyrazol-4-yl)-3-thiophenecarboxylic acid]
14 | 260 | Cn1cc(-c2cc(C(=O)N[C@H](C(=O)O)C3CCCCC3)c(NC(=O)Nc3c(Cl)cccc3Cl)s2)cn1 [Example 423, (2S)-cyclohexyl({[2-({[(2,6-dichlorophenyl)amino]carbonyl}amino)-5-(1-methyl-1H-pyrazol-4-yl)-3-thienyl]carbonyl}amino)ethanoic acid]
